Structures can show the parent of a compound that is named as a salt.
Columns and labels:
[1] = test system: human skin microvascular endothelial cells; experiment: Effect on morphology and growth of endothelial cell cultures; type: cell-based
Experimental: Skin endothelial cells in psoriasis are intimately involved in initiating the inflammatory response. Agents which affect both the binding of T lymphocytes and the hyperproliferation of endothelial cells would be expected to have a major effect in controlling the skin lesions.
In this study, human skin microvascular endothelial cells were isolated both from foreskins removed at circumcision and from skin obtained following a facial cosmetic correction. The endothelial cells were grown in a modified Iscove's medium, and while in the growth phase, the effect of varying concentrations of spirogermanium was studied on both the morphology and the growth of the endothelial cell cultures. Final concentrations of spirogermanium in the growth medium were 1,000, 500, 100, 50, 10, 1.0 and 0.125 μg/ml.

[2] = test system: Human foreskin keratinocytes; experiment: Mitotic activity of epidermal keratinocytes: inhibition of 3H-TdR incorporation into DNA; type: cell-based
Experimental: The mitotic activity of epidermal keratinocytes is one of the most obvious histological features of the psoriatic lesion. Many cytotoxic drugs used to treat the disease are believed to function by direct inhibition of keratinocyte replication.
Human foreskin keratinocytes were cultured in KGM. When the dishes were approximately 50% covered by cells, SG was added to give final concentrations of 5×10^-5 to 5×10^-9 M. After 3 days, the cells were pulsed with ^3 H-TdR for 4 hours, and incorporation into DNA assayed by conventional means. The inhibition of incorporation in 2 experiments was as follows: […]

[3] = In vivo evaluation of efficacy in treating psoriasis; conditions: moderate to severe psoriasis; documented (cited) procedures
Experimental: Compounds encompassed by structural formula (I) are evaluated in vivo for their efficacy in treating psoriasis. The methods of the following references are used in the evaluation: Berardesca et al., "Non-invasive Evaluation of Topical Calcipotriol versus Clobetasol in the Treatment of Psoriasis," Acta Derm Venereol (Stokh) 74:302-304 (1994); Elias et al., "A Controlled Trial of Topical Propylthiouracil in the Treatment of Patients with Psoriasis," J. Amer. Acad. Dermatol. 31(3):455-458; and Highton et al., "Calcipotriene Ointment 0.005% for Psoriasis: A Safety and Efficacy Study," J. Amer. Acad. Dermatol. 32(1):67-72 (1995).

[4] = hydrochloride salt, cited from earlier work

C[CH2][Ge]1([CH2]C)[CH2]CC2(CCN(CCCN(C)C)C2)C[CH2]1 [SG]
cell death ([1]; 0.125 μg/ml, after 1 week): cell death was observed after 1 week | endothelial cell morphology ([1]; 10 μg/ml): vacuolization was observed before desquamation and ultimate cell death | endothelial cell morphology ([1]; highest concentrations): immediately rounded up and detached from the dish surface | inhibition of DNA synthesis in keratinocytes (in words) [2]: very potent inhibitor of DNA synthesis in keratinocytes | efficacy in treating psoriasis [3]: effective for treating moderate to severe psoriasis

C[CH2][Ge]1([CH2]C)[CH2]CC2(CCN(CCCN(C)C)C2)C[CH2]1 [spirogermanium HCl]
solubility in 95% ethanol ([4]; 95% ethanol): freely soluble | solubility in water ([4]; water): freely soluble

Reference: US5843936A, “Topical administration of azaspiranes to prevent or treat skin conditions associated with hyperproliferation of keratinocytes” (priority 1996, dated 1998)
